Source: patent publication US7772275B2, “Compositions and method for treating affective, painful or allergic disorders” (Gideon Pharmaceuticals, Inc., priority 2002, dated 2010)

Legend:
[1] = Applicant's evaluation of sedation with the cis isomer at therapeutically effective dosages; type: in vivo
From the text: In an attempt to discover a compound that might have similar effectiveness to doxepin hydrochloride U.S.P. but less associated sedation, the applicant has evaluated the cis isomer, which as mentioned above constitutes less than 18.1 % of doxepin hydrochloride. […] The invention includes pharmaceutical compositions of cis doxepin suitable for administration to patients with affective disorders, painful disorders, or allergic disorders.

[2] = system: pruritic skin lesions of atopic dermatitis; experiment: Cream applied to pruritic skin lesions by patients with atopic dermatitis; type: in vivo, human; settings: cream 1.0% by weight, applied two to four times daily
From the text: A cream containing cis doxepin isomer 1.0% by weight is applied two to four times daily to pruritic skin lesions by patients with atopic dermatitis.

[3] = in animals; 'purportedly'; cited from earlier work

Q: What does the source list for `CN(C)CC/C=C1/c2ccccc2COc2ccccc21.Cl` [cis doxepin hydrochloride]?
A: sedation compared with doxepin hydrochloride U.S.P. [1]: produces less sedation; relief of itching [2]: provides for relief of itching; resolution of the skin lesions [2]: more prompt resolution of the skin lesions; sedation compared with prior art doxepin creams in which the trans isomer is predominant [2]: without producing the incidence or severity of sedation; potency compared with doxepin hydrochloride U.S.P. [3]: more potent
